According to patent US8846699B2, “Quinazoline derivatives as a multiplex inhibitor and method for the preparation thereof” (Hanmi Pharm. Co., Ltd., priority 2005, dated 2014):

Columns and labels:
[1] = tested on: Human Umbilical Vein Endothelial Cell (HUVEC); assay: Inhibitory effect on growth of human umbilical vein endothelial cell (HUVEC), MTS; assay type: cell-based; conditions: 10 ng/ml VEGF, absorbance 490 nm
Experimental: HUVECs (Young Science, Inc) were suspended in a culture medium, EBM-2 (Endothelial Basic Media, Cambrex) supplemented with 2% bovine serum (Cambrex) and auxiliary additives for HUVEC culture (e.g., EGF, VEGF, FGF, etc., Cambrex), inoculated into a culture flask coated with 1% gelatin, and incubated in an incubator at 37° C. under 5% CO2 and 100% humidity.
100 μl of 5% bovine serum medium containing 10 ng/ml of vascular endothelial growth factor (VEGF) and auxiliary additives, while excluding other growth factors was added to each well of a 96-well plate. […] DMSO (Dimethylsulfoxide) was used to dissolve the test compounds, and the final concentration of DMSO was less than 1%.
100 μl of the diluted cell solution was added to each well of the 96-well plate, which was incubated in an incubator for 96 hours.
Then, 20 μl of MTS ([…], Promega) solution was added to each well of the plate, and the plate was incubated in an incubator for 4 hours to induce discoloration. After 4 hours, the pellets were dissolved by way of a thorough shaking, and the absorbance at 490 nm was determined.

[2] = tested on: breast cancer cell line, SK-Br3; assay: Inhibitory effect on growth of cancer cell line SK-Br3, SRB; assay type: cell-based; conditions: overexpressed EGFR2 (HER-2)
From the text: (§1) A skin cancer cell line, A431 (ATCC: CRL-1555), a breast cancer cell line, SK-Br3 (ATCC: HTB-30), and a colon and rectal cancer cell line, SW-620 (ATCC: CCL-227) were used to test the degrees of cancer cell growth inhibition using a culture medium, DEME (Dulbecco's Modified Eagle's Medium, JBI) including 4.5 g/l of glucose and 1.5 g/l of sodium bicarbonate and supplemented with 10% FBS (fetal bovine serum, JBI).
(§2) The cancer cell lines stored in a liquid nitrogen tank were each quickly thawed at 37° C., and centrifuged to remove the medium. The resulting cell pellet was mixed with a culture medium, incubated in a culture flask at 37° C. under 5% CO2 for 2 to 3 days, and the medium was removed. The remaining cells were washed with DPBS (Dulbecco's Phosphate Buffered Saline, JBI) and separated from the flask by using Trypsin-EDTA solution, and the separated cells were diluted with a culture medium to a concentration of 1.0×10^6 cells/ml in case of A431 and SW-620, and 2.0×10^6 cells/ml in case of SK-Br3. 100 μl of the diluted cell solution was added to each well of a 96-well plate, which was incubated at 37° C. under 5% CO2 for 1 day.
(§3) In case that the test compound was not soluble in DMSO, a small amount of 1% HCl was added thereto and treated in a 40° C. water bath for 30 mins until complete dissolution was attained. The test compound solution was diluted with a culture medium to a final concentration of 10 μM, and then diluted 10 times serially to 10^−4. The final concentration of DMSO was less than 1%, and the control compounds of Test Example 1 were used at a concentration of 0.0001 to 10 μM.
(§4) The medium was removed from each well of the 96-well microplate, 100 μl of a diluted test compound solution was added to each well holding cultured cells, and the microplate was incubated at 37° C. under 5% CO2 for 72 hours. After removing the medium from the plate, 50 μl of 10% trichloroacetic acid was added to each well, and the plate was kept at 37° C. for 1 hour to fix the cells to the bottom of the plate. 10% trichloroacetic acid was removed from each well, the plate was dried, 100 μl of an SRB (Sulforhodamine-B, Sigma) dye solution was added thereto, and reacted for 10 mins. The SRB dye solution was prepared by dissolving SRB in 1% acetic acid to a concentration of 0.4%. After removing the dye solution, the plate was washed with water, and dried. When the dye solution was not removed by water, 1% acetic acid was used.
(§5) 150 μl of 10 mM trisma base (Sigma) was added to each well, and the absorbance at 570 nm was determined with a microplate reader (Molecular device).

[3] = tested on: colon and rectal cancer cell line, SW-620; assay: Inhibitory effect on growth of cancer cell line SW-620, SRB; assay type: cell-based; conditions: not having overexpressed EGFR and EGFR2
From the text: as §1, §2, §3, §4, §5

[4] = tested on: skin cancer cell line, A431; assay: Inhibitory effect on growth of cancer cell line A431, SRB; assay type: cell-based; conditions: overexpressed EGFR1 (HER-1)
From the text: as §1, §2, §3, §4, §5

EGFR1 (HER-1) = EGFR1 (HER-1) (Homo sapiens (Human), UniProt P00533); assay: EGFR1 (HER-1) enzyme assay, fluorescence polarization; assay type: biochemical; conditions: 100 μM ATP, poly(Glu, Tyr) substrate
VEGFR2 (KDR) = VEGFR2 (KDR) (Homo sapiens (Human), UniProt P35968); assay: VEGFR2 (KDR) enzyme assay, fluorescence polarization; assay type: biochemical; conditions: 5 μM ATP, poly(Glu, Tyr) substrate
Experimental: VEGFR2 (KDR, Proquinase) enzyme assay (auto-phosphorylation assay) was carried out by using Tyrosine Kinase Assay Kit Green (Panvera). The entire assay was conducted in accordance with VEGFR PTK inhibitor cellular activity test S.O.P.
A typical kinase inhibition reaction requires a protein tyrosine kinase, a suitable buffer solution system, a peptide substrate and ATP. In the present VEGFR tyrosine kinase assay, a buffer solution system containing 20 mM HEPES (pH 7.4), 5 mM MgCl2 and 2 mM MnCl2; 50 μM Na3VO4; 200 ng/10 μl VEGFR (Proquinase); 5 μM ATP; and 10 ng/ml poly(Glu, Tyr) (4:1, Sigma) as a substrate were used.
The compounds of Test Example 1 were used as control compounds at a concentration of 0.0001 to 10 μM. After 10 min, 10 μl of poly(Glu, Tyr) as a substrate was added to each well, and 10 μl of ATP was added thereto to initiate kinase reaction. The plate was incubated at room temperature for 1 hour, and 10 μl of 100 mM EDTA was added to each well to terminate the kinase reaction.
The added EDTA was mixed for 5 min. Thereafter, 10 μl of 10× anti-phosphotyrosine antibody (Panvera), 10 μl of 10×PTK Green Tracer (Panvera) and 30 μl of FP dilution buffer (Panvera) were added thereto, and the plate was incubated in a dark room at room temperature for 30 min.

Chain of EGFR1 (HER-1) (P00533 25-1210): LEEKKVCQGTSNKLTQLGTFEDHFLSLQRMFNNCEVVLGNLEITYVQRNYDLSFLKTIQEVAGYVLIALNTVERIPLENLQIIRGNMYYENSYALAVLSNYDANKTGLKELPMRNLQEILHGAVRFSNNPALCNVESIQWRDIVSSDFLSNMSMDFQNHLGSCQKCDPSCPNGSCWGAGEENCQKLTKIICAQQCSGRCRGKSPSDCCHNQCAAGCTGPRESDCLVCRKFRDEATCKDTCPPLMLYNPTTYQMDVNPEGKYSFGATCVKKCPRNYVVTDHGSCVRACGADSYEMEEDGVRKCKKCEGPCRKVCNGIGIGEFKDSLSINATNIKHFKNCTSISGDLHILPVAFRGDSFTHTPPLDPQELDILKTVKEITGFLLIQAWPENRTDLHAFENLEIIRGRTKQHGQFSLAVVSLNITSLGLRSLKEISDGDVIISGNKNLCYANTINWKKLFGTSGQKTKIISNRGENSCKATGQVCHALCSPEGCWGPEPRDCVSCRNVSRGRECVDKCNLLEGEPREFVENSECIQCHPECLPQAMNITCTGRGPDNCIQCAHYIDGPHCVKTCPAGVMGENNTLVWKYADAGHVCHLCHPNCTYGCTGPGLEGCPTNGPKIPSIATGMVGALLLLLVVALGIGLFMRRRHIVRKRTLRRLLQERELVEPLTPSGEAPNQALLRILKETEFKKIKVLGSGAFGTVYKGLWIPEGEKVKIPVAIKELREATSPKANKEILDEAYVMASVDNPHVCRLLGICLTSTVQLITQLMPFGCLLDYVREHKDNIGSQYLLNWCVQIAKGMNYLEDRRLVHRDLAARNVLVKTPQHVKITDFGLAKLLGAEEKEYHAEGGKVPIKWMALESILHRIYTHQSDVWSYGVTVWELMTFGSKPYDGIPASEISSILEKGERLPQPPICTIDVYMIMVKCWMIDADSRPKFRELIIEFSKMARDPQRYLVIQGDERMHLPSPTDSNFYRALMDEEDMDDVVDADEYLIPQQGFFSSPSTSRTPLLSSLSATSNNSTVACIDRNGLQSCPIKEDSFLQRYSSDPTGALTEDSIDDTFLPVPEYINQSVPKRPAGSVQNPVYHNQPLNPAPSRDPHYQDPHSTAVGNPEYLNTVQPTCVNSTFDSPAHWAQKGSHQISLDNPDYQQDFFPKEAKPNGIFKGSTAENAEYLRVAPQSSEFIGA
Chain of VEGFR2 (KDR) (P35968 20-1356): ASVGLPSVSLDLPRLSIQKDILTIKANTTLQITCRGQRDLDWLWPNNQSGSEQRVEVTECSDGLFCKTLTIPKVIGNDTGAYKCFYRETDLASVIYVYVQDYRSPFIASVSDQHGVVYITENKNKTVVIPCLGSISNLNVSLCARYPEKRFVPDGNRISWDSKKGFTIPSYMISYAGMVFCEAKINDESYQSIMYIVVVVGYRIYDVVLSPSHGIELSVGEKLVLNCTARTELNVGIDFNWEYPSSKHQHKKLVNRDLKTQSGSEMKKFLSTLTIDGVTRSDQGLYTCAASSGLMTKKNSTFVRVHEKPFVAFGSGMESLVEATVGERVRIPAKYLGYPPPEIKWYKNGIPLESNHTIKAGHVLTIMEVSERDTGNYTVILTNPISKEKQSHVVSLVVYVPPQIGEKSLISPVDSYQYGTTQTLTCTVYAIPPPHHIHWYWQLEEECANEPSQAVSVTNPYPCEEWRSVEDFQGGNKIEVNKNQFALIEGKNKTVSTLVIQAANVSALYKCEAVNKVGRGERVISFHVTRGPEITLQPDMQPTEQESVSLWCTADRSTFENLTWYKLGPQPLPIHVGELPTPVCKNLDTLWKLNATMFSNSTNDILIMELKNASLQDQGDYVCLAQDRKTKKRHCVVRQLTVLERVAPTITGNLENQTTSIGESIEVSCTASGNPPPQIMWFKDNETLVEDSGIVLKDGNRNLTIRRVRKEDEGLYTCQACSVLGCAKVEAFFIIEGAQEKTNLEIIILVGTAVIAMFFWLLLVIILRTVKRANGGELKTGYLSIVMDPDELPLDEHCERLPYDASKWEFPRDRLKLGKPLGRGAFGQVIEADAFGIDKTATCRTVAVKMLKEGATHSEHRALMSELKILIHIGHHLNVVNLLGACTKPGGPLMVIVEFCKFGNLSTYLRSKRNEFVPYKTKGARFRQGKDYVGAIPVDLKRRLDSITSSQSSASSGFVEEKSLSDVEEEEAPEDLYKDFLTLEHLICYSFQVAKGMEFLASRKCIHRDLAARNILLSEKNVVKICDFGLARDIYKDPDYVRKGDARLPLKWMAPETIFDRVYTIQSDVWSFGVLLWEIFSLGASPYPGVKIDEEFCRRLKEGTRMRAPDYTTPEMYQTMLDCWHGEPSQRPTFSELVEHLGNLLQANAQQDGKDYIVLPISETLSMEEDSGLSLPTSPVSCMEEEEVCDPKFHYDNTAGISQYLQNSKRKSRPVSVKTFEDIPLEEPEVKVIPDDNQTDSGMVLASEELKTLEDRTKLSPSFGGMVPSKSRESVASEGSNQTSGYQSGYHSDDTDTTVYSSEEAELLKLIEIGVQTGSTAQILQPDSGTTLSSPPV

Compound	IC50 ([1]; Homo sapiens, 96 h)	IC50 ([2]; Homo sapiens, SK-BR-3, 72 h)	IC50 ([3]; Homo sapiens, 72 h)	IC50 ([4]; Homo sapiens, A-431, 72 h)	IC50 (EGFR1 (HER-1))	IC50 ([4]; 72 hours)	IC50 ([2]; 72 hours)	IC50 ([3]; 72 hours)	IC50 (VEGFR2 (KDR))	IC50 ([1]; 96 hours)
Clc1ccc(Nc2nnc(Cc3ccncc3)c3ccccc23)cc1 [Control 1, PTK787, reference compound]	40 nM	10000 nM	10000 nM	10000 nM						
COc1cc2c(Nc3ccc(Br)cc3F)ncnc2cc1OCC1CCN(C)CC1 [Control 2, ZD6474, reference compound]	70 nM	2600 nM	4500 nM	28 nM						
C=C(C)C(=O)Nc1cc2c(Nc3ccc(Br)cc3F)ncnc2cc1OCCNC(C)=O [Example 76, N-[7-(2-acetylamino-ethoxy)-4-(4-bromo-2-fluoro-phenylamino)-quinazolin-6-yl]-2-methyl-acrylamide]		6340 nM		2880 nM	1020 nM					
C=CC(=O)N(C)c1cc2c(Nc3ccc(Br)cc3F)ncnc2cc1OCCNC(C)=O [Example 78, N-[7-(2-acetylamino-ethoxy)-4-(4-bromo-2-fluoro-phenylamino)-quinazolin-6-yl]-N-methyl-acrylamide]		1210 nM		396 nM	389 nM					
C=CC(=O)Nc1cc2c(Nc3ccc(Br)cc3F)ncnc2cc1OC1CCN(C(C)=O)C1 (centres unmarked) [Example 88, N-[7-(1-acetyl-pyrrolidin-3-yloxy)-4-(4-bromo-2-fluoro-phenylamino)-quinazolin-6-yl]-acrylamide]	10000 nM	297 nM	723 nM	99 nM	94 nM					
C=CC(=O)Nc1cc2c(Nc3ccc(Br)cc3F)ncnc2cc1OC1CCCN(C(C)=O)C1 (centres unmarked) [Example 89, N-[7-(1-acetyl-piperidin-3-yloxy)-4-(4-bromo-2-fluoro-phenylamino)-quinazolin-6-yl]-acrylamide]	10000 nM	965 nM	10000 nM	368 nM	128 nM					
C=CC(=O)Nc1cc2c(Nc3ccc(Br)cc3F)ncnc2cc1OCCNC(=O)C1CCCN1C (centres unmarked) [Example 98, 1-methyl-pyrrolidine-2-carboxylic acid {2-[6-acryloylamino-4-(4-bromo-2-fluoro-phenylamino)-quinazolin-7-yloxy]-ethyl}-amide]		179 nM	9570 nM		69 nM	78 nM				
C=CC(=O)Nc1cc2c(Nc3ccc(Br)cc3F)ncnc2cc1OCCNC(=O)C1CCCN1C (centres unmarked) [Example 100, 1-methyl-pyrrolidine-2-carboxylic acid {2-[6-acryloylamino-4-(4-bromo-2-fluoro-phenylamino)-quinazolin-7-yloxy]-ethyl}-amide]					24 nM	25 nM	101 nM	10000 nM		
C=CC(=O)Nc1cc2c(Nc3ccc(F)c(Cl)c3)ncnc2cc1OCCNC(C)=O [Example 111, N-[7-(2-acetylamino-ethoxy)-4-(3-chloro-4-fluoro-phenylamino)-quinazolin-6-yl]-acrylamide]		26 nM	8530 nM	9 nM	12 nM					
C=CC(=O)Nc1cc2c(Nc3ccc(Br)cc3C(F)(F)F)ncnc2cc1OCCNC(C)=O [Example 114, N-[7-(2-acetylamino-ethoxy)-4-(4-bromo-2-trifluoromethyl-phenylamino)-quinazolin-6-yl]-acrylamide]		897 nM		468 nM	456 nM					
C=CC(=O)Nc1cc2c(Nc3cc(C(=O)NOC)c(Br)cc3F)ncnc2cc1OCCNC(C)=O [Example 131, 5-[7-(2-acetylamino-ethoxy)-6-acryloylamino-quinazolin-4-ylamino]-2-bromo-4-fluoro-N-methoxy-benzamide]	965 nM								756 nM	
C=CC(=O)Nc1cc2c(Nc3cc(OC)c(Cl)cc3Cl)ncnc2cc1OCCNC(C)=O [Example 132, N-[7-(2-acetylamino-ethoxy)-4-(2,4-dichloro-5-methoxy-phenylamino)-quinazolin-6-yl]-acrylamide]		36 nM	2700 nM	47 nM	42 nM					
C=CC(=O)Nc1cc2c(Nc3ccc(Br)c(Cl)c3)ncnc2cc1OCCNC(=O)CN(C)C [Example 152]					75 nM	99 nM	647 nM	10000 nM		10000 nM
C=CC(=O)Nc1cc2c(Nc3ccc(Br)cc3F)ncnc2cc1OCC(C)(C)NC(=O)CN(C)C [Example 154, N-{4-(4-bromo-2-fluoro-phenylamino)-7-[2-(2-dimethylamino-acetylamino)-2-methyl-propoxy]-quinazolin-6-yl}-acrylamide]		240 nM	9130 nM	248 nM	222 nM					
C=CC(=O)Nc1cc2c(Nc3ccc(Br)cc3F)ncnc2cc1OCC(NC(=O)CN(C)C)C(C)C (centres unmarked) [Example 156, N-{4-(4-bromo-2-fluoro-phenylamino)-7-[2-(2-dimethylamino-acetylamino)-3-methyl-buthoxy]-quinazolin-6-yl}-acrylamide]					149 nM	196 nM	462 nM	3270 nM		10000 nM
C=CC(=O)Nc1cc2c(Nc3ccc(Br)c(Cl)c3F)ncnc2cc1OC[C@H](C)NC(=O)CN(C)C [Example 158, (S)—N-4-(4-bromo-3-chloro-2-fluoro-phenylamino)-7-[2-(2-dimethylamino-acetylamino)-propoxy]-quinazolin-6-yl-acrylamide]					23.1 nM	259 nM	381 nM	5150 nM		10000 nM
C=CC(=O)Nc1cc2c(Nc3cc(OC)c(Cl)cc3OC)ncnc2cc1OCCNC(=O)CN(C)C [Example 166, N-{4-(4-chloro-2,5-dimethoxy-phenylamino)-7-[2-(2-dimethylamino-acetylamino)-ethoxy]-quinazolin-6-yl}-acrylamide]		27 nM	5650 nM	30 nM	14 nM					
